Assay results: patent publication US20110117554A1, “Formamide-containing mixtures for detecting nucleic acids” (priority 2009, published 2011)

Assay: Melting temperatures of 20mer nucleic acid duplexes in formamide-water mixtures
Type: physicochemical
Conditions: for Melting Temperatures in Formamide: 1.5 μM single strand, 100 mM NaCl, 10 mM K-phosphate pH 7, 0.1 mM EDTA
Experimental: A mismatch in 50% formamide in the DNA strand lowers the melting temperature of the duplex containing LNA-8 from 72 to 66 to 62° C.
As the results in the Tables show, useful melting temperatures are obtained when the oligonucleotides bound in duplex contain at least 15 nucleotide units that have 2′-OMe ribonucleotides as their building blocks. Comparably useful melting temperatures are obtained when the oligonucleotides contain locked nucleic acid (LNA) carbohydrate analogs, as described in [Koshkin et al., 1998]. The data in the Tables also makes clear that the binding between two complementary DNA strands of this length is not useful in 50% formamide, as it is below 30° C. at 50% formamide.

Substance	Tm (Stability of Duplexes in Formamide and Water) (0 % formamide (Table 3))	Melting Temperatures in Formamide (0 percent formamide)	Tm (Stability of Duplexes in Formamide and Water) (25 % formamide (Table 3))	Melting Temperatures in Formamide (25 percent formamide)	Tm (Stability of Duplexes in Formamide and Water) (50 % formamide (Table 3))	Melting Temperatures in Formamide (50 percent formamide)	Tm (Stability of Duplexes in Formamide and Water) (70 % formamide (Table 3))	Tm (Stability of Duplexes in Formamide and Water) (70 % formamide (Table 3), listed as model 20 mer)	Tm (Stability of Duplexes in Formamide and Water) (90 % formamide (Table 3))
DNA:DNA: 20mer DNA duplex of strand-1 5′-CTTCAGGTACTGAGTCAAGC-3′ (SEQ ID NO 3) and strand-2 (SEQ ID NO 4) (chain 1 CTTCAGGTACTGAGTCAAGC; chain 2 GCTTGACTCAGTACCTGAAG; DNA, backbone and methylation of C not given here)	61 °C	62 °C	44 °C	46 °C	28 °C	29 °C	<20 °C	≤ 20 °C	
RNA:RNA: 20mer RNA duplex 5′-CUUCAGGUACUGAGUCAAGC-3′ (SEQ ID NO 1) with 3′-GAAGUCCAUGACUCAGUUCG-5′ (SEQ ID NO 2) (chain 2 GCUUGACUCAGUACCUGAAG; RNA, backbone not given here)	73 °C	73 °C	60 °C	61 °C	48 °C	49 °C	40 °C		<25 °C
